Measured values from patent publication US10214531B2 (Institute for Drug Discovery, LLC, priority 2013, dated 2019).
Counter-ions that a name gives are not always drawn.

Biological target: recombinant human AMCase (Homo sapiens, UniProt Q9BZP6)
Experiment: Human AMCase Activity Assay
Assay type: biochemical
Details: recombinant hAMCase, 4-methylumbelliferyl chitobioside substrate, citrate buffer pH 5.2, 37° C., 60 minutes; read-out: Activity (IC50 value key)
Protocol: Human AMCase Activity Assay
The assay was run in the 96-well plate format, each reaction in the total volume of 100 μl. 4-Methylumbelliferyl B-D-N,N′ diacetylchitobioside hydrate was used as a substrate for the enzyme. Upon hydrolysis by AMCase, the substrate releases 4-methylumbelliferyl (4MU), when ionized in basic pH, emits fluorescence of 460 nm.
Briefly, 40 μl of a substrate was added to each well, followed by 10 μl of compound dilution and 50 μl of hAMCase recombinant enzyme solution. The reaction was carried out in citrate buffer, pH 5.2, in the dark, at 37° C. for 60 minutes with shaking.

Sequence of recombinant human AMCase (Q9BZP6 22-476): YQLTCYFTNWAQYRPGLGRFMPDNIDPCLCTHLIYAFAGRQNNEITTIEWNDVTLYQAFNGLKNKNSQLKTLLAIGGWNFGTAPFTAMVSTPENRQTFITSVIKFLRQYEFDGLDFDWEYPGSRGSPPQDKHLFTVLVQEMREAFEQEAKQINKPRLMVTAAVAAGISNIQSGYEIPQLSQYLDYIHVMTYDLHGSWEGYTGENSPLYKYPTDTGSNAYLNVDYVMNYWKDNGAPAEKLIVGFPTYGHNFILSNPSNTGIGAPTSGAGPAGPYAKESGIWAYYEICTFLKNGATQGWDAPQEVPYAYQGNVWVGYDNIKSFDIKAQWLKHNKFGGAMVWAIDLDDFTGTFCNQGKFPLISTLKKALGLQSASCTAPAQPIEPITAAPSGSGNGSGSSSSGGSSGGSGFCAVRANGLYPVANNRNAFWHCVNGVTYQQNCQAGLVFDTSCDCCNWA

| SMILES | IC50 [µM] |
| --- | --- |
| Nc1n[nH]c(N2CCNCC2)n1 [Example 38, 5-(piperazin-1-yl)-1H-1,2,4-triazol-3-amine trihydrochloride] | > 100 |
| COC[C@@H](c1ccccc1)N(CCc1ccc(Cl)cc1)C1CCN(c2nc(N)n[nH]2)CC1 [Example 109] | 10 to 100 |
| Nc1n[nH]c(N2CCN(C(=O)C(O)Cc3ccccc3Cl)CC2)n1 (stereo not shown) [Example 73, 1-(4-(3-amino-1H-1,2,4-triazol-5-yl)piperazin-1-yl)-3-(2-chlorophenyl)-2-hydroxypropan-1-one] | > 100 |
| CCC(CN1CCN(c2nc(N)n[nH]2)CC1)Oc1ccc(Br)cc1 (stereo not shown) [Example 60, 5-(4-(2-(4-bromophenoxy)butyl)piperazin-1-yl)-1H-1,2,4-triazol-3-amine] | 10 to 100 |
| Nc1n[nH]c(N2CCC(N(CCc3ccc(Br)cc3)Cc3ccc(F)c4ccccc34)CC2)n1 [Example 167, 1-(3-amino-1H-1,2,4-triazol-5-yl)-N-(4-bromophenethyl)-N-((4-fluoronaphthalen-1-yl)methyl)piperidin-4-amine] | < 0.1 |
| CCc1ccccc1OC(C)C(=O)N1CCN(c2nc(N)n[nH]2)CC1 (stereo not shown) [Example 33, 1-(4-(3-amino-1H-1,2,4-triazol-5-yl)piperazin-1-yl)-2-(2-ethylphenoxy)propan-1-one] | > 100 |
| Nc1n[nH]c(N2CCC(NS(=O)(=O)Cc3cccc(Cl)c3)CC2)n1 [Example 59, N-(1-(3-amino-1H-1,2,4-triazol-5-yl)piperidin-4-yl)-1-(3-chlorophenyl)methanesulfonamide] | 1 to 10 |
| Cc1ccc(OC(C)C(=O)N2CCN(c3nc(N)n[nH]3)CC2)c(Cl)c1 (stereo not shown) [Example 45, 1-(4-(3-amino-1H-1,2,4-triazol-5-yl)piperazin-1-yl)-2-(2-chloro-4-methylphenoxy)propan-1-one] | > 100 |
| Nc1n[nH]c(N2CCC3C(CCCN3CCc3ccc(Br)cc3)C2)n1 (stereo not shown) [Example 253, 5-(1-(4-bromophenethyl)octahydro-1,6-naphthyridin-6(2H)-yl)-1H-1,2,4-triazol-3-amine dihydrochloride] | < 0.1 |
| CN(CCc1cccc(C(F)(F)F)c1)C1CCN(c2nc(N)n[nH]2)CC1 [Example 180, 1-(3-amino-1H-1,2,4-triazol-5-yl)-N-methyl-N-(3-(trifluoromethyl)phenethyl)piperidin-4-amine] | 0.1 to 1 |
| Nc1n[nH]c(N2CCN(CCOc3ccc(F)cc3)CC2)n1 [Example 1, 5-(4-(2-(4-fluorophenoxy)ethyl)piperazin-1-yl)-1H-1,2,4-triazol-3-amine] | > 100 |
| Nc1n[nH]c(N2CCC(N(CCc3ccc(Cl)cc3)Cc3ccccc3CO)CC2)n1 [Example 164, (2-(((1-(3-amino-1H-1,2,4-triazol-5-yl)piperidin-4-yl)(4-chlorophenethyl)amino)methyl)phenyl)methanol dihydrochloride] | < 0.1 |
| CCC(Oc1ccc(Br)cc1)C(=O)N1CCN(c2nc(N)n[nH]2)CC1 (stereo not shown) [Example 5, 1-[4-(3-amino-1H-1,2,4-triazol-5-yl)piperazin-1-yl]-2-(4-bromophenoxy)butan-1-one] | > 100 |
| CC(Cc1ccc(Br)cc1)CN1CCN(c2nc(N)n[nH]2)CC1 (stereo not shown) [Example 39, 5-(4-(3-(4-bromophenyl)-2-methylpropyl)piperazin-1-yl)-1H-1,2,4-triazol-3-amine dihydrochloride] | 1 to 10 |
| N#Cc1ccc(CN(CCc2ccc(Cl)cc2)C2CCN(c3nc(N)n[nH]3)CC2)cc1 [Example 142, 4-(((1-(3-amino-1H-1,2,4-triazol-5-yl)piperidin-4-yl)(4-chlorophenethyl)amino)methyl)benzonitrile] | < 0.1 |
| CCCC1CN(c2nc(N)n[nH]2)CCC1NCCc1ccc(Cl)cc1 (single isomer, unassigned) [Example 234, 1-(3-amino-1H-1,2,4-triazol-5-yl)-N-(4-chlorophenethyl)-3-propylpiperidin-4-amine] | 0.1 to 1 |
| Nc1n[nH]c(N2CCN(CCOc3ccccc3F)CC2)n1 [Example 85, 5-(4-(2-(2-fluorophenoxy)ethyl)piperazin-1-yl)-1H-1,2,4-triazol-3-amine] | 10 to 100 |
| CC(=O)NC(CC(=O)N1CCN(c2nc(N)n[nH]2)CC1)c1cccc(F)c1 (stereo not shown) [Example 222, N-(3-(4-(3-amino-1H-1,2,4-triazol-5-yl)piperazin-1-yl)-1-(3-fluorophenyl)-3-oxopropyl)acetamide] | > 100 |
| CN(C)C(CC(=O)N1CCN(c2nc(N)n[nH]2)CC1)c1ccccc1F (stereo not shown) [Example 242, 1-(4-(3-amino-1H-1,2,4-triazol-5-yl)piperazin-1-yl)-3-(dimethylamino)-3-(2-fluorophenyl)propan-1-one dihydrochloride] | > 100 |
| Nc1n[nH]c(N2CCC(CNC(=O)c3cccc(F)c3)CC2)n1 [Example 208, N-((1-(3-amino-1H-1,2,4-triazol-5-yl)piperidin-4-yl)methyl)-3-fluorobenzamide] | > 100 |

| SMILES | IC50 [µM] |
| --- | --- |
| Nc1n[nH]c(N2CCC(C(=O)NCc3ccc(F)c(C(F)(F)F)c3)CC2)n1 [Example 54, 1-(3-amino-1H-1,2,4-triazol-5-yl)-N-(4-fluoro-3-(trifluoromethyl)benzyl)piperidine-4-carboxamide] | > 100 |
| Nc1n[nH]c(N2CCN(C(=O)CC(N)c3ccc(F)cc3)CC2)n1 (stereo not shown) [Example 215, 3-amino-1-(4-(3-amino-1H-1,2,4-triazol-5-yl)piperazin-1-yl)-3-(4-fluorophenyl)propan-1-one dihydrochloride] | > 100 |
| Nc1n[nH]c(N2CCN(C(=O)CC(N)c3cccc(F)c3)CC2)n1 (stereo not shown) [Example 233, 3-amino-1-(4-(3-amino-1H-1,2,4-triazol-5-yl)piperazin-1-yl)-3-(3-fluorophenyl)propan-1-one] | > 100 |
| CN(C1CCN(c2nc(N)n[nH]2)CC1)[C@H](CO)Cc1ccc(Cl)cc1 [Example 153, (S)-2-((1-(3-amino-1H-1,2,4-triazol-5-yl)piperidin-4-yl)(methyl)amino)-3-(4-chlorophenyl)propan-1-ol] | 0.1 to 1 |
| Nc1n[nH]c(N2CCC(CNC(=O)Nc3cccc(Cl)c3)CC2)n1 [Example 218] | > 100 |
| Nc1n[nH]c(N2CCC(c3nnc(-c4ccc(F)cc4)o3)CC2)n1 [Example 43, 5-(4-(5-(4-fluorophenyl)-1,3,4-oxadiazol-2-yl)piperidin-1-yl)-1H-1,2,4-triazol-3-amine] | > 100 |
| CN(Cc1ccc(Cl)cc1)C1CCN(c2nc(N)n[nH]2)CC1 [Example 148, 1-(3-amino-1H-1,2,4-triazol-5-yl)-N-(4-chlorobenzyl)-N-methylpiperidin-4-amine dihydrochloride] | > 100 |
| C[C@@H](Oc1ccc(Cl)cc1)C(=O)N1CCN(c2nc(N)n[nH]2)CC1 [Example 9, (R)-1-(4-(3-amino-1H-1,2,4-triazol-5-yl)piperazin-1-yl)-2-(4-chlorophenoxy)-propan-1-one] | > 100 |
| CC(C)(O)CCC1CN(c2nc(N)n[nH]2)CCN1CCCc1ccc(Br)cc1 (stereo not shown) [Example 229, 4-(4-(3-amino-1H-1,2,4-triazol-5-yl)-1-(3-(4-bromophenyl)propyl)piperazin-2-yl)-2-methylbutan-2-ol] | 1 to 10 |
| CCC(Cc1ccc(Cl)cc1)N(CC)C1CCN(c2nc(N)n[nH]2)CC1 (stereo not shown) [Example 232, 1-(3-amino-1H-1,2,4-triazol-5-yl)-N-(1-(4-chlorophenyl)butan-2-yl)-N-ethylpiperidin-4-amine dihydrochloride] | 0.1 to 1 |
| Cc1cccc(C(=O)NCC2CCN(c3nc(N)n[nH]3)CC2)c1C [Example 210, N-((1-(3-amino-1H-1,2,4-triazol-5-yl)piperidin-4-yl)methyl)-2,3-dimethylbenzamide] | > 100 |
| Nc1n[nH]c(N2CCCN(CCOc3ccc(Br)cc3)CC2)n1 [Example 28, 5-{4-[2-(4-bromophenoxy)ethyl]-[1,4]-diazepan-1-yl}-1H-1,2,4-triazol-3-amine] | > 100 |
| Nc1n[nH]c(N2CCC(NC(=O)Nc3ccc(Cl)cc3)CC2)n1 [Example 67, 1-(1-(3-amino-1H-1,2,4-triazol-5-yl)piperidin-4-yl)-3-(4-chlorophenyl)urea] | > 100 |
| Nc1n[nH]c(N2CCN(CCOCc3ccccc3)CC2)n1 [Example 80, 5-(4-(2-(benzyloxy)ethyl)piperazin-1-yl)-1H-1,2,4-triazol-3-amine] | > 100 |
| Nc1n[nH]c(N2CCC(CNC(=O)c3cccc(Br)c3)CC2)n1 [Example 69, N-((1-(3-amino-1H-1,2,4-triazol-5-yl)piperidin-4-yl)methyl)-3-bromo benzamide] | > 100 |
| Nc1n[nH]c(N2CCC(C(=O)NCc3cc(C(F)(F)F)cc(C(F)(F)F)c3)CC2)n1 [Example 255, 1-(3-amino-1H-1,2,4-triazol-5-yl)-N-(3,5-bis(trifluoromethyl)benzyl)piperidine-4-carboxamide] | > 100 |
| COc1ccc(OCCN2CCN(c3nc(N)n[nH]3)CC2)cc1 [Example 81, 5-(4-(2-(4-methoxyphenoxy)ethyl)piperazin-1-yl)-1H-1,2,4-triazol-3-amine] | 10 to 100 |
| Cn1nc(N2CCN(CCOc3ccc(Br)cc3)CC2)nc1N [Example 27-1, 3-(4-(2-(4-bromophenoxy)ethyl)piperazin-1-yl)-1-methyl-1H-1,2,4-triazol-5-amine] | > 100 |
| Nc1n[nH]c(N2CCC(NCCc3ccc(Br)cc3)CC2)n1 [Example 22, 1-(3-amino-1H-1,2,4-triazol-5-yl)-N-(4-bromophenethyl)piperidin-4-amine] | 1 to 10 |
| CC(Oc1ccccc1F)C(=O)N1CCN(c2nc(N)n[nH]2)CC1 (stereo not shown) [Example 44, 1-(4-(3-amino-1H-1,2,4-triazol-5-yl)piperazin-1-yl)-2-(2-fluorophenoxy)propan-1-one] | > 100 |
